From publication PMC6526530 (Biological & pharmaceutical bulletin, 2009)

Experiments:
[1] = molecular target: T1, P-glycoprotein (ABCB1/MDR1) (Homo sapiens, UniProt P08183); assay: transepithelial transport in L-MDR1 vs LLC-PK1 monolayers; type: cell-based
[2] = molecular target: T1, P-glycoprotein (ABCB1/MDR1); assay: inhibition of transepithelial DRV transport in L-MDR1 monolayers; type: cell-based

T1 sequence (P08183 whole entry): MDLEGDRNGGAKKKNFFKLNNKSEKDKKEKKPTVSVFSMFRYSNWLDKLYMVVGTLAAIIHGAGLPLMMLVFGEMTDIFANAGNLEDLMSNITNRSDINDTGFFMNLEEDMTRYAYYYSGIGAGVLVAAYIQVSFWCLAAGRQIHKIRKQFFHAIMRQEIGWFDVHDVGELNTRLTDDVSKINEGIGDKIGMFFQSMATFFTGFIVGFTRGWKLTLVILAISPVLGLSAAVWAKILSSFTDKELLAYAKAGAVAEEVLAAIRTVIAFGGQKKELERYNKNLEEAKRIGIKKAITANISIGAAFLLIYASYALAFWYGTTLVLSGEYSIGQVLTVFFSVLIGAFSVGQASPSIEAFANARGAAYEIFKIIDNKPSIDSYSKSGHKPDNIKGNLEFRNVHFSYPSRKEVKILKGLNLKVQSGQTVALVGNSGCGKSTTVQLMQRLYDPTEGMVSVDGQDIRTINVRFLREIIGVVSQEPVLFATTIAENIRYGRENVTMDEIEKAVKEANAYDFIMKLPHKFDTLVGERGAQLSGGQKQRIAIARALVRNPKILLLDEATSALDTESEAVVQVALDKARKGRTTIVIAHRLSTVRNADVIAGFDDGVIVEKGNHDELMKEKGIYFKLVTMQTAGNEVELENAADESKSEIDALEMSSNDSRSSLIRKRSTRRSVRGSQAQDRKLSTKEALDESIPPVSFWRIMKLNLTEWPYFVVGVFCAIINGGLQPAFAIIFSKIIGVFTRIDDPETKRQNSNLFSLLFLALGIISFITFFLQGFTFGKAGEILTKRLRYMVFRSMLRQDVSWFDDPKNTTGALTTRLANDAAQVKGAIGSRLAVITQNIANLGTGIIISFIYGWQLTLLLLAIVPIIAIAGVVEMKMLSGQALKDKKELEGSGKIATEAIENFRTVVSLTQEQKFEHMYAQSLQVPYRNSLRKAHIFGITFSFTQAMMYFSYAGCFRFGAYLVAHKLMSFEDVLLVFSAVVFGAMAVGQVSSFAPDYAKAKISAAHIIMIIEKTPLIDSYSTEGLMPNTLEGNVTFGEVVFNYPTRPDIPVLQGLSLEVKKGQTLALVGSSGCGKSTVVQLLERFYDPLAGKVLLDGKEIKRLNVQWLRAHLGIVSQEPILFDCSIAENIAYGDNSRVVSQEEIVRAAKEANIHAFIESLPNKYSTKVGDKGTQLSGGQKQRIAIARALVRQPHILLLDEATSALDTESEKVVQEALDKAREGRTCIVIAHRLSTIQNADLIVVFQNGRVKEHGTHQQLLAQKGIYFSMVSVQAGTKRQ

CC(C)CN(C[C@@H](O)[C@H](Cc1ccccc1)NC(=O)O[C@H]1CO[C@H]2OCC[C@H]21)S(=O)(=O)c1ccc(N)cc1 [DRV, Darunavir] gave an IC50 [1] of 121 µM.
For Cc1c(O)cccc1C(=O)N[C@@H](CSc1ccccc1)[C@H](O)CN1C[C@H]2CCCC[C@H]2C[C@H]1C(=O)NC(C)(C)C [NFV, Nelfinavir], the “inhibition of transepithelial DRV transport in L-MDR1 monolayers” value [2] was “showed NFV to have a potent inhibitory effect on P-glycoprotein-mediated transport of DRV when compared to RTV and SQV”.
